Structures can show the parent of a compound that is named as a salt.
molecular target: T1, α1a (rat) adrenoreceptor (Rattus norvegicus, UniProt P43140); experiment: [3H]-prazosin radioligand binding, cloned α1a (rat) adrenoreceptor in LTK cells; conditions: cloned receptor in LTK cell membranes, [3H]prazosin 0.2 nM
T1 sequence (P43140 1-466): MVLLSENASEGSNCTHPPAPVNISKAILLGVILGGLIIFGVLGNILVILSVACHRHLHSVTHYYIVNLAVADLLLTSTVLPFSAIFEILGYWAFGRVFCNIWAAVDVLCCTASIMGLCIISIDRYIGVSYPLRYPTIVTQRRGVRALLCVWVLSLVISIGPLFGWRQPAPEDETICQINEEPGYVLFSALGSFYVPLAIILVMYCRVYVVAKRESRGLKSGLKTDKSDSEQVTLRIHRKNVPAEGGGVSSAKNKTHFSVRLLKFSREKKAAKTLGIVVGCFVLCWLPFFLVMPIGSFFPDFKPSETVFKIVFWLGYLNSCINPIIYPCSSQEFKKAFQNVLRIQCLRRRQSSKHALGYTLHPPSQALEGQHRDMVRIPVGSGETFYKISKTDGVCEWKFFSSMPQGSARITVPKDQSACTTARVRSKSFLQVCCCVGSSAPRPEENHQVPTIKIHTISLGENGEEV
Text: The cDNA clones encoding the α1, adrenoreceptors were obtained from TULCO (Triangle Universities Licensing Consortium, Research Triangle Park, N.C.) and inserted into the eukaryotic expression vector SnaB30. In this vector, expression of the adrenoreceptor gene is under the transcriptional control of an SV40 early promoter. Positive drug selection is provided by a neomycin-resistance gene. Mouse fibroblast cells (LTK) were transfected with the α1 expression plasmids and grown in Dulbecco's modified Eagle's medium (DMEM) containing 10% fetal calf serum and 30 μM G418. […] Stable single cell clones derived from the parental lines were screened in adrenoreceptor binding assays to identify clones having high adrenoreceptor density. Roller bottle cultures of the cloned lines were used to provide cell membranes for subsequent adrenoreceptor binding characterization studies. A cell line containing the SnaB30 vector expressing the human erythropoietin gene served as a negative control.
For adrenoreceptor binding assays, large scale membrane preparations were utilized in which 6 million cells were seeded into small (450 cm^2) Coming tissue culture roller bottles. DMEM (200 mL) containing 10% fetal calf serum and 300 μM G418 were added to each roller bottle. A 95% air/5% CO2 gas mixture (sterile) was injected into each roller bottle prior to sealing, and the bottles were then incubated at 37° C. on a roller rack for 5 days. Cells were refed with fresh medium after 3 days in culture.
On the fifth day of culture, growth medium was removed from cells grown in roller bottles, and the cells were washed twice with PBS (Sigma, 120 mM NaCl, 2.7 mM KCl, 10 mM Na2HPO4-NaH2PO4, pH=7.4). Cells were detached from the roller bottles by incubating for 15 minutes at 37° C. in a Tris-EDTA solution (10 mM Tris, 100 mM NaCl, 1 mM EDTA, pH=7.4). The cell suspension from each roller bottle was decanted into tared centrifuge tubes and kept on ice. An aliquot of each cell suspension was generally taken for cell counting. Cells were centrifuged at 3000×G for 5 minutes at 2-4° C., washed with PBS and recentrifuged. The supernatant was decanted, and the pellet was weighed to determine the wet weight of cells. Cells were washed a final time in 40 vol 5 mM Tris-HCl, 5 mM EDTA, pH=7.7 and centrifuged at 40,000×G for 10 minutes (“vol” indicates volume/weight, e.g., a “vol” of 40 would indicate that the one gram of cells were washed with 40 mls of buffer). Cells were homogenized in of 50 mM Tris-HCl, 5 mM EDTA (pH=7.4) (10 mL) and diluted to 40 mL/tube. Homogenates were centrifuged at 40,000×G for 10 minutes. The supernatant was decanted and the pellets rehomogenized in 50 mM Tris-HCl (pH=7.4) and centrifuged as before.
Following equilibration, bound radioligand was separated from free on GF/B filters (presoaked in 0.5% polyethyleneimine) using ither a Brandel or Packard cell harvester. Radioactivity was determined by standard liquid scintillation techniques.

Compound | Ki
Cl.Cl.O=c1[nH]c2c(sc3cccnc32)c(=O)n1CCCN1CCN2c3ccccc3OCC2C1 (single isomer, unassigned; (+)) [Example 1, (+) 3-[3-(1,2,4a,5-tetrahydropyrazino[2,1-c][1,4]benzoxazin-3(4H)-yl)propyl]pyrido[2′,3′:4,5]thieno[3,2-d]pyrimidine-2,4(1H,3H)-dione dihydrochloride] | 1.84 nM
Cl.Cl.O=c1[nH]c2c(sc3cccnc32)c(=O)n1CCCCN1CCN2c3ccccc3OCC2C1 (single isomer, unassigned; (+)) [Example 3, (+) 3-[4-(1,2,4a,5-tetrahydropyrazino[2,1-c][1,4]benzoxazin-3(4H)-yl)butyl]pyrido[2′, 3′:4,5]thieno[3,2-d]pyrimidine-2,4(1H,3H)-dione dihydrochloride] | 2.85 nM
Cl.Cl.O=c1[nH]c2c(sc3ncccc32)c(=O)n1CCCCN1CCN2c3ccccc3OCC2C1 (single isomer, unassigned; (+)) [Example 5, (+) 3-[4-(1,2,4a,5-tetrahydropyrazino[2,1-c][1,4]benzoxazin-3(4H)-yl)butyl]pyrido[3′, 2′:4,5]thieno[3,2-d]pyrimidine-2,4(1H,3H)-dione dihydrochloride] | 5.02 nM
COc1cccc2c1N1CCN(CCCn3c(=O)[nH]c4c(sc5cccnc54)c3=O)CC1CO2.Cl.Cl.Cl (single isomer, unassigned; (+)) [Example 17, (+) 3-[3-(10-methoxy-1,2,4a,5-tetrahydropyrazino[2,1-c][1,4]benzoxazin-3(4H)-yl)propyl]pyrido[2′,3′:4,5]thieno[3,2-d]pyrimidine-2,4(1H,3H)-dione trihydrochloride] | 4.44 nM
O=c1[nH]c2c(sc3cccnc32)c(=O)n1CCCN1CCN2c3ccccc3OCC2C1 (single isomer, unassigned; (-)) [Example 2, (−) 3-[3-(1,2,4a,5-tetrahydropyrazino[2,1-c][1,4]benzoxazin-3(4H)-yl)propyl]pyrido[2′,3′:4,5]thieno[3,2-d]pyrimidine-2,4(1H,3H)-dione dihydrochloride] | 19.3 nM
O=c1[nH]c2c(sc3cccnc32)c(=O)n1CCCCN1CCN2c3ccccc3OCC2C1 (single isomer, unassigned; (-)) [Example 4, (−) 3-[4-(1.2,4a,5-tetrahydropyrazino[2,1-c][1,4benzoxazin-3(4H)-yl)butyl]pyrido[2′,3′:4,5]thieno[3,2-d]pyrimidine-2,4(1H,3H)-dione dihydrochloride] | 6.62 nM
Cl.Cl.O=c1[nH]c2c(sc3ncccc32)c(=O)n1CCCCN1CCN2c3ccccc3OCC2C1 (single isomer, unassigned; (-)) [Example 6, (−) 3-[4-(1,2,4a,5-tetrahydropyrazino[2,1-c][1,4]benzoxazin-3(4H)-yl)butyl]pyrido[3′, 2′:4,5]thieno[3,2-d]pyrimidine-2,4(1H,3H)-dione dihydrochloride] | 9.83 nM
(−) 3-[3-(10-methoxy-1,2,4a,5-tetrahydropyrazino[2,1-c][1,4]benzoxazin-3(4H)-yl)butyl]pyrido[2′,3′:4,5]thieno[3,2-d]pyrimidine-2,4(1H,3H)-dione trihydrochloride [Example 10] | 0.257 nM

The remaining compounds from weak to strong by Ki, led by results:

Ki | Compound
1.78 nM | COc1cccc2c1N1CCN(CCn3c(=O)[nH]c4c(sc5ncc(Cl)nc54)c3=O)CC1CO2.Cl.Cl (single isomer, unassigned; (+)) [Example 8, (+) 3-[2-(10-methoxy-1,2,4a,5-tetrahydropyrazino[2,1-c][1,4]benzoxazin-3(4H)-yl)ethyl]-8-chloropyrazino[2′,3′:4,5]thieno[3,2-d]pyrimidine-2,4(1H,3H)-dione dihydrochloride]
1.55 nM | COc1cccc2c1N1CCN(CCn3c(=O)[nH]c4c(sc5ncc(Cl)nc54)c3=O)CC1CO2.Cl.Cl (single isomer, unassigned; (-)) [Example 13, (−) 3-[2-(10-methoxy-1,2,4a,5-tetrahydropyrazino[2,1-c][1,4]benzoxazin-3(4H)-yl)ethyl]-8-chloropyrazino[2′,3′:4,5]thieno[3,2-d]pyrimidine-2,4(1H,3H)-dione dihydrochloride]
1.24 nM | COc1cccc2c1N1CCN(CCn3c(=O)[nH]c4c(sc5cccnc54)c3=O)CC1CO2.Cl.Cl.Cl (single isomer, unassigned; (+)) [Example 16, (+) 3-[2-(10-methoxy-1,2,4a,5-tetrahydropyrazino[2,1-c][1,4]benzoxazin-3(4H)-yl)ethyl]pyrido[2′,3′:4,5]thieno[3,2-d]pyrimidine-2,4(1H,3H)-dione trihydrochloride]
0.864 nM | COc1cccc2c1N1CCN(CCn3c(=O)[nH]c4c(sc5cccnc54)c3=O)CC1CO2.Cl.Cl (single isomer, unassigned; (-)) [Example 7, (−) 3-[2-(10methoxy-1,2,4a,5-tetrahydropyrazino[2,1-c][1,4]benzoxazin-3(4H)-yl)ethyl]pyrido[2′,3′:4,5]thieno[3,2-d]pyrimidine-2,4(1H,3H)-dione dihydrochloride]
0.648 nM | COc1cccc2c1N1CCN(CCCCn3c(=O)[nH]c4c(sc5ncc(Cl)nc54)c3=O)CC1CO2.Cl.Cl (single isomer, unassigned; (-)) [Example 12, (−) 3-[4-(10-methoxy-1,2,4a,5-tetrahydropyrazino[2,1-c][1,4]benzoxazin-3(4H)-yl)butyl]-8-chloropyrazino[2′,3′:4,5]thieno[3,2-d]pyrimidine-2,4(1H,3H)-dione dihydrochloride]
0.447 nM | COc1cccc2c1N1CCN(CCCCn3c(=O)[nH]c4c(sc5ncccc54)c3=O)CC1CO2.Cl.Cl.Cl (single isomer, unassigned; (+)) [Example 15, (+) 3-[4-(10-methoxy-1,2,4a,5-tetrahydropyrazino[2,1-c][1,4]benzoxazin-3(4H)-yl)butyl]pyrido[3′,2′:4,5]thieno[3,2-d]pyrimidine-2,4(1H,3H)-dione trihydrochloride]
0.359 nM | COc1cccc2c1N1CCN(CCCn3c(=O)[nH]c4c(sc5cccnc54)c3=O)CC1CO2.Cl.Cl.Cl (single isomer, unassigned; (-)) [Example 9, (−) 3-[3-(10-methoxy-1,2,4a,5-tetrahydropyrazino[2,1-c][1,4]benzoxazin-3(4H)-yl)propyl]pyrido[2′,3′:4,5]thieno[3,2-d]pyrimidine-2,4(1H, 3H)-dione trihydrochloride]
0.29 nM | COc1cccc2c1N1CCN(CCCCn3c(=O)[nH]c4c(sc5cccnc54)c3=O)CC1CO2 (single isomer, unassigned; (+)) [Example 14, (+) 3-[4-(10-methoxy-1,2,4a,5-tetrahydropyrazino[2,1-c][1,4]benzoxazin-3(4H)-yl)butyl]pyido [2′,3′:4,5]thieno[3,2-d]pyrimidine-2,4(1H,3H)-dione trihydrochloride]
0.24 nM | COc1cccc2c1N1CCN(CCCCn3c(=O)[nH]c4c(sc5ncccc54)c3=O)CC1CO2 (single isomer, unassigned; (-)) [Example 11, (−) 3-[4-(10-methoxy-1,2,4a,5-tetrahydropyrazino[2,1-c][1,4]benzoxazin-3(4H)-yl)butyl]pyrido[3′,2′:4.5]thieno[3,2-d]pyrimidine-2,4(1H,3H)-dione trihydrochloride]

Reference: US6376488B1, “Benzoxazine α-1 adrenergic compounds” (Abbott Laboratories, priority 2000, dated 2002)
